Structures can show the parent of a compound that is named as a salt.
System: HCT116
Conditions: 72 h
Summary of the method: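 HCT116 cells were seeded at 250 per well in 1536-well plates and left 5 h to attach. CellTiter-Glo luminescence was scaled to vehicle (0%) and positive control (-100%), then pattern-corrected. IC50 and maximal efficacy came from four-parameter Hill fits.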

IC50 cell viability (ICRF193 0 nM) [µM]	IC50 cell viability (ICRF193 200 nM) [µM]	SMILES
> 45.8	> 45.8	C[C@@H]1CCN(C(=O)CC#N)C[C@@H]1N(C)c1ncnc2[nH]ccc12 [Tofacitinib]
> 45.8	> 45.8	CCOC(=O)OC(C)OC(=O)[C@@H]1N2C(=O)[C@@H](NC(=O)[C@H](N)c3ccccc3)[C@H]2SC1(C)C (stereo partly specified) [Bacampicillin hydrochloride]
> 45.8	> 45.8	CN(C)CCOC(=O)COc1ccc(Cl)cc1 [Meclofenoxate hydrochloride]
> 45.8	> 45.8	NCCC(=O)[N-][C@@H](Cc1c[nH]cn1)C(=O)[O-].[Zn+2] [Polaprezinc]
> 45.8	> 45.8	CC(=O)OC(C)OC(=O)C(C)c1ccc(-c2ccccc2)c(F)c1 (stereo unspecified) [Flurbiprofen axetil]
> 45.8	> 45.8	NC(=O)OCC(COC(N)=O)c1ccccc1 [Felbamate]
> 45.8	> 45.8	Cc1cccc(Nc2ccncc2S(=O)(=O)NC(=O)NC(C)C)c1 [Torsemide]
> 45.8	> 45.8	N[C@H](Cc1c[nH]c2ccccc12)C(=O)O [d-Tryptophan]
> 45.8	> 45.8	CCN(CC)CC(=O)Nc1c(C)cccc1C(=O)OC [Tolycaine]
> 45.8	> 45.8	O=S(=O)(O)c1cc(O)ccc1O [Dobesilate Calcium]
> 45.8	> 45.8	COCCOc1cnc(NS(=O)(=O)c2ccccc2)nc1 [Glymidine sodium]
> 45.8	> 45.8	CC(=O)Nc1ccccc1 [Acetanilide]

Further lines, the molecule ahead of its results:

SMILES	IC50 cell viability (ICRF193 0 nM) [µM]	IC50 cell viability (ICRF193 200 nM) [µM]
Cc1ccccc1N1CCN(CCc2nnc3n2CCCC3)CC1 [Dapiprazole hydrochloride]	> 45.8	> 45.8
CNC(=C[N+](=O)[O-])NCCSCc1ccc(CN(C)C)o1 [Ranitidine]	> 45.8	> 45.8
CC1O[C@H](O[C@]2(O[C@H]3CC[C@@]4(C)C(=CC[C@H]5[C@@H]6C[C@H]7[C@H]([C@H](C)[C@H]8CC[C@H](C)CN87)[C@@]6(C)CC[C@@H]54)C3)C[C@@H](O[C@@H]3OC(CO)[C@@H](O)[C@@H](O)C3O)[C@@H](O)C(CO)O2)C(O)[C@@H](O)[C@H]1O (stereo partly drawn) [Solanine alpha]	> 45.8	> 45.8
CCCCC/C=C\C/C=C\CCCCCCCC(=O)OCC [Ethyl linoleate]	> 45.8	> 45.8
C=CCC1=C(C)C(OC(=O)C2C(C=C(C)C)C2(C)C)CC1=O (stereo unspecified) [Allethrin]	> 45.8	> 45.8
CC(C)[C@H](N)C(=O)OCCOCn1cnc2c(=O)nc(N)[nH]c21 [Valaciclovir]	> 45.8	> 45.8
CCC(=O)O[C@]1(C(=O)CCl)[C@@H](C)C[C@H]2[C@@H]3C[C@H](F)C4=CC(=O)C=C[C@]4(C)[C@@]3(F)[C@@H](O)C[C@@]21C [Halobetasol Propionate]	> 45.8	> 45.8
CC[C@H](C)C[C@H](C)CCCCCCCCC(=O)N[C@H]1C[C@@H](O)[C@@H](NCCN)NC(=O)[C@@H]2[C@@H](O)CCN2C(=O)[C@H]([C@H](O)CCN)NC(=O)[C@H]([C@H](O)[C@@H](O)c2ccc(O)cc2)NC(=O)[C@@H]2C[C@@H](O)CN2C(=O)[C@H]([C@@H](C)O)NC1=O [Caspofungin Acetate]	> 45.8	> 45.8
CCOC(=O)N[C@@H]1CC[C@@H]2[C@@H](C1)C[C@H]1C(=O)O[C@H](C)[C@H]1[C@H]2/C=C/c1ccc(-c2cccc(F)c2)cn1 [Vorapaxar Sulfate]	> 45.8	> 45.8
COc1ccc2[nH]c([S+]([O-])Cc3ncc(C)c(OC)c3C)nc2c1 (stereo unspecified) [Omeprazole]	> 45.8	> 45.8
CCc1cc2c(cc1N1CCC(N3CCOCC3)CC1)C(C)(C)c1[nH]c3cc(C#N)ccc3c1C2=O [Alectinib]	> 45.8	> 45.8

— the supplement of paper PMC12137928
